Experimental findings from BindingDB's records for doi:10.1021/jm50001a017 (1985) are described below.

Each structure is given as a SMILES string.

As a reminder, the Kd is the constant that tells how readily two partners part at equilibrium.

Experiment [1] deals with Beta-2 adrenergic receptor (Mus musculus) (UniProt P18762). Kind of experiment: KD constant value was evaluated for the displacement of ICYP (iodocyanopindolol) binding.
Experiment [2] has the same target. Kind of experiment: KD constant value was evaluated for the displacement of ICYP (iodocyanopindolol) binding in […] lymphoma cell.

Chain of Beta-2 adrenergic receptor (Mus musculus) (P18762 whole entry, looked up): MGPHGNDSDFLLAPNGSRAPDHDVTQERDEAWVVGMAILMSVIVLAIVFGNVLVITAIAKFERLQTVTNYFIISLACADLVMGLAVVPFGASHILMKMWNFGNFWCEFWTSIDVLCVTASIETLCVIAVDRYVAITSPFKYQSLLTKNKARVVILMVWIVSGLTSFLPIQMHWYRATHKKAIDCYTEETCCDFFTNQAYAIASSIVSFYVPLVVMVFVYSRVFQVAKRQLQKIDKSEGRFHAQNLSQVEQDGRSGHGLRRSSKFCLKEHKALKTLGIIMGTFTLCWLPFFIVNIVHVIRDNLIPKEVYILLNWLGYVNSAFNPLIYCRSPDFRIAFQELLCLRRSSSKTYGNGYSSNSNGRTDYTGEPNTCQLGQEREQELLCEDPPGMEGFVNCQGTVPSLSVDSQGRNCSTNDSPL

Regarding `Cc1ccc(C(=O)NCCCCC(C)NCC(O)c2ccc(O)c(O)c2)cc1` (stereo not drawn), the Kd in experiment [1] was determined as 320 nM. In the case of `Cc1ccc(NC(=O)NCCCCC(C)NCC(O)c2ccc(O)c(O)c2)cc1` (stereo not drawn), binding in experiment [2] was put at a Kd of 470 nM. Turning to `CC(CCCCN)NCC(O)c1ccc(O)c(O)c1` (stereo not drawn), the Kd in experiment [1] was 10000 nM.
